Data as given in patent publication US6638531B1, “Antimicrobial peptides” (priority 1998, dated 2003).
Where no end group is shown, it is not given here.

Key:
Format in all cases: cell-based
Lactobacillus rhamnosus = assay: Inhibition of lactic acid production; details: L. rhamnosus; 1 hour in 10 mM PPB with glucose
Procedure: (§1) All peptides according to the invention were tested for their capacity to inhibit the lactic acid production of the bacteria Streptococcus sanguis, Streptococcus mutans, Streptococcus salivarius and Lactobacillus rhamnosus. The formation of lactic acid is a measure for the metabolic activity. For this purpose cultures of bacteria cells were incubated for 1 hour in 10 mM PPB with 0.5 glucose and different concentrations of the peptides. The formation of lactic acid was monitored by means of spectrophotometry.

Streptococcus mutans = assay: Inhibition of lactic acid production; details: S. mutans; 1 hour in 10 mM PPB with glucose
Procedure: as §1

Streptococcus sanguis = assay: Inhibition of lactic acid production; details: S. sanguis; 1 hour in 10 mM PPB with glucose
Procedure: as §1

Streptococcus salivarius = assay: Inhibition of lactic acid production; details: S. salivarius; 1 hour in 10 mM PPB with glucose
Procedure: as §1

Candida albicans = assay: Growth inhibition on agar with spotted peptide; parameters: key: “+” designates full growth inhibition; “+/−” designates partial inhibition; “−” signifies no inhibition; details: C. albicans on agar, 10 μg peptide spotted
Procedure: (§2) The growth of the yeast Candida albicans, Torulopsis glabrata and meticillin-resistant Staphylococcus aureus (MRSA) was tested by growing them on agar on which 10 μg of each of the peptides according to the invention was spotted. […] “+” designates full growth inhibition, “+/−” designates partial inhibition and “−” signifies no inhibition.

Torulopsis glabrata = assay: Growth inhibition on agar with spotted peptide; parameters: key: “+” designates full growth inhibition; “+/−” designates partial inhibition; “−” signifies no inhibition; details: T. glabrata on agar, 10 μg peptide spotted
Procedure: as §2

[1] = tested on: meticillin-resistant Staphylococcus aureus (MRSA); assay: Growth inhibition on agar with spotted peptide; parameters: key: “+” designates full growth inhibition; “+/−” designates partial inhibition; “−” signifies no inhibition; details: 10 μg peptide spotted
Procedure: as §2

Substance | inhibition of lactic acid production (Lactobacillus rhamnosus) | inhibition of lactic acid production (Streptococcus mutans) | inhibition of lactic acid production (Streptococcus sanguis) | inhibition of lactic acid production (Streptococcus salivarius) | growth inhibition (Candida albicans) | growth inhibition (Torulopsis glabrata) | growth inhibition [1]
KRLFKELLKSLRKY [peptide 6] | + (“+” designates full inhibition at 4-20 μg/ml peptide) | + (“+” designates full inhibition at 4-20 μg/ml peptide) | + (“+” designates full inhibition at 4-20 μg/ml peptide) | + (“+” designates full inhibition at 4-20 μg/ml peptide) | + | + | 
OOLFOELLOSLOOY [peptide 8] | + (“+” designates full inhibition at 4-20 μg/ml peptide) | + (“+” designates full inhibition at 4-20 μg/ml peptide) | + (“+” designates full inhibition at 4-20 μg/ml peptide) | + (“+” designates full inhibition at 4-20 μg/ml peptide) | + | + | 
KRKFHEKHHSHRGY [dh-5, C-terminal part of histatin 5, reference compound] | − (“−” signifies no inhibition of lactic acid formation at >100 μg/ml peptide) | − (“−” signifies no inhibition of lactic acid formation at >100 μg/ml peptide) | − (“−” signifies no inhibition of lactic acid formation at >100 μg/ml peptide) | − (“−” signifies no inhibition of lactic acid formation at >100 μg/ml peptide) | − | − | −
KRLFKELLFSLRKY [peptide 4] | + (“+” designates full inhibition at 4-20 μg/ml peptide) | + (“+” designates full inhibition at 4-20 μg/ml peptide) | + (“+” designates full inhibition at 4-20 μg/ml peptide) | + (“+” designates full inhibition at 4-20 μg/ml peptide) | + | + | +/−
KRLFKELKFSLRKY-amide (KRLFKELKFSLRKY-NH2) [peptide 12] | + (“+” designates full inhibition at 4-20 μg/ml peptide) | + (“+” designates full inhibition at 4-20 μg/ml peptide) | + (“+” designates full inhibition at 4-20 μg/ml peptide) | + (“+” designates full inhibition at 4-20 μg/ml peptide) | + | + | 
KRLFKELKKSLRKY [peptide 5] | + (“+” designates full inhibition at 4-20 μg/ml peptide) | + (“+” designates full inhibition at 4-20 μg/ml peptide) | + (“+” designates full inhibition at 4-20 μg/ml peptide) | + (“+” designates full inhibition at 4-20 μg/ml peptide) | + | + | 
OOLFOELOOSLOOY [peptide 7] | + (“+” designates full inhibition at 4-20 μg/ml peptide) | + (“+” designates full inhibition at 4-20 μg/ml peptide) | + (“+” designates full inhibition at 4-20 μg/ml peptide) | + (“+” designates full inhibition at 4-20 μg/ml peptide) | + | + | 
KRLFKELLFSLRKY-amide (KRLFKELLFSLRKY-NH2) [peptide 13] | + (“+” designates full inhibition at 4-20 μg/ml peptide) | + (“+” designates full inhibition at 4-20 μg/ml peptide) | + (“+” designates full inhibition at 4-20 μg/ml peptide) | + (“+” designates full inhibition at 4-20 μg/ml peptide) | + | + | 
